The source of these data is patent US12187723B2 (BRISTOL-MYERS SQUIBB COMPANY, priority 2019, dated 2025).

Each structure is given as a SMILES string. Bounds are passed on as bounds.

The target in the experiment is T1, human TLR9 (Homo sapiens, UniProt Q9NR96).
T1 construct: host or cells: HEK-Blue cells
T1 sequence (Q9NR96 26-1032): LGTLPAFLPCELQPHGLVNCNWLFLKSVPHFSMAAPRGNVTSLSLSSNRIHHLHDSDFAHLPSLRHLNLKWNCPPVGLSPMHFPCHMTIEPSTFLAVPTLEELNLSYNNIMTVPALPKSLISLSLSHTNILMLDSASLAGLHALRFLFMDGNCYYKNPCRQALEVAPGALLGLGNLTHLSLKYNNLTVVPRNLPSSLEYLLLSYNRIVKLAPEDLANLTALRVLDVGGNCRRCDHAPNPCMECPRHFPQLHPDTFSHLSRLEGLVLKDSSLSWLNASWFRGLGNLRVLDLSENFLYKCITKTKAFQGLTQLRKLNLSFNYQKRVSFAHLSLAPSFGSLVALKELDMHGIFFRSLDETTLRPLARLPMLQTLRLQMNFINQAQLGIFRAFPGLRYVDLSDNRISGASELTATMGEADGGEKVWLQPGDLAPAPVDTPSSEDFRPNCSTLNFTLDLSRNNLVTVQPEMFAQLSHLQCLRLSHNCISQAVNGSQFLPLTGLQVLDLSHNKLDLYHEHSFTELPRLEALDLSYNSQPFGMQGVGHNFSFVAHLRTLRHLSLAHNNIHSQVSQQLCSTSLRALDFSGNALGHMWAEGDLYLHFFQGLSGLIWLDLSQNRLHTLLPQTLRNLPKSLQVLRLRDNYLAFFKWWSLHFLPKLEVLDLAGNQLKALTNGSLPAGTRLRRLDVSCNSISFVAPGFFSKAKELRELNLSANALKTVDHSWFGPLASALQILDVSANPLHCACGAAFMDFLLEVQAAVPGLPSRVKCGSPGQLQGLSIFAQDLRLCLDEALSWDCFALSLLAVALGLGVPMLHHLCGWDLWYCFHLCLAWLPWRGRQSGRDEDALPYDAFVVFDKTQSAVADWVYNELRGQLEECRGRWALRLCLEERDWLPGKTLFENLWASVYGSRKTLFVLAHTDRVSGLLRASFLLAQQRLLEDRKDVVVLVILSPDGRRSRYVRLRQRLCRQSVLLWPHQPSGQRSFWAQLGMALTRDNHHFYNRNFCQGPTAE
Nature of the experiment: TLR9 inhibition reporter assay (HEK-Blue SEAP). Type of experiment: cell-based. Particulars: HEK-Blue cells overexpressing human TLR9, ODN2006 5 nM, 22 hour incubation. The procedure, abridged: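 Dose–response from 0.05 nM to 50 μM was run in HEK-Blue human TLR7, TLR8 and TLR9 reporter cells. After 30 min at room temperature with compound, ligand was added (TLR7 gardiquimod 7.5 μM; TLR8 R848 15.9 μM; TLR9 ODN2006 5 nM) and SEAP measured next day, at 22 h.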
In general terms: Reporter assays use an easily measured gene product as a stand-in for the process of interest.
Consider `Cc1c(-c2cc3[nH]c(=O)n([C@H]4CC[C@@H](NC5COC5)CC4)c3cc2C(C)C)cn2ncnc2c1C` [Example 188, 5-(7,8-dimethyl-[1,2,4]triazolo[1,5-a]pyridin-6-yl)-6-isopropyl-1-((1s,4s)-4-(oxetan-3-ylamino)cyclohexyl)-1,3-dihydro-2H-benzo[d]imidazol-2-one], for which the IC50 – broadly, the midpoint of a concentration-inhibition curve – amounted to 22.2 µM.

For the molecule `CCc1cc2c(cc1-c1cc(OC)c3ncnn3c1)[nH]c(=O)n2[C@@H]1CCCN(C2CCCOC2)C1` (stereo partly drawn) [Example 215, 6-ethyl-5-(8-methoxy-[1,2,4]triazolo[1,5-a]pyridin-6-yl)-1-((3R)-1-(tetrahydro-2H-pyran-3-yl)piperidin-3-yl)-1,3-dihydro-2H-benzo[d]imidazol-2-one], the IC50 came to 21 µM.

As for `CCc1cc2c(cc1-c1cc(OC)c3ncnn3c1)[nH]c(=O)n2[C@@H]1CCCN(CC2CCC2)C1` [Example 181, (R)-1-(1-(cyclobutylmethyl)piperidin-3-yl)-6-ethyl-5-(8-methoxy-[1,2,4]triazolo[1,5-a]pyridin-6-yl)-1,3-dihydro-2H-benzo[d]imidazol-2-one], the IC50 is 6.77 µM.

Consider `COc1cc(-c2cc3[nH]c(=O)n([C@@H]4CCCN(C5CCOC5)C4)c3cc2C(C)C)cn2ncnc12` (stereo partly drawn) [Example 217, 6-isopropyl-5-(8-methoxy-[1,2,4]triazolo[1,5-a]pyridin-6-yl)-1-((3R)-1-(tetrahydrofuran-3-yl)piperidin-3-yl)-1,3-dihydro-2H-benzo[d]imidazol-2-one], for which the IC50 is greater than 50 µM.

`CCN1CCC[C@H](n2c(=O)[nH]c3cc(-c4cc(C)c5ncnn5c4)c(C)cc32)C1` [Example 12, (S)-1-(1-ethylpiperidin-3-yl)-6-methyl-5-(8-methyl-[1,2,4]triazolo[1,5-a]pyridin-6-yl)-1,3-dihydro-2H-benzo[d]imidazol-2-one] came in with an IC50 of 7.64 µM.

In turn, `CCc1cc2c(cc1-c1cc(OC)c3ncnn3c1)[nH]c(=O)n2[C@H]1CC[C@@H](N(CC)CC)CC1` [Example 169, 1-((1s,4s)-4-(diethylamino)cyclohexyl)-6-ethyl-5-(8-methoxy-[1,2,4]triazolo[1,5-a]pyridin-6-yl)-1,3-dihydro-2H-benzo[d]imidazol-2-one] returned an IC50 of 18.3 µM. Compared with the last molecule, the IC50 is about 2.4-fold higher.

`COc1cc(-c2cc3[nH]c(=O)n([C@@H]4CCCN(C5CCCOC5)C4)c3cc2C(C)C)cn2ncnc12` (single isomer, unassigned) [Example 219] showed a half-inhibitory concentration (IC50) of 25.1 µM. This IC50 and that of the molecule before are within 1.5-fold of each other.

With `COc1cc(-c2cc3[nH]c(=O)n([C@H]4CC[C@H](N(CC5CC5)CC5CC5)CC4)c3cc2C(C)C)cn2ncnc12` [Example 206, 1-((1r,4s)-4-(bis(cyclopropylmethyl)amino)cyclohexyl)-6-isopropyl-5-(8-methoxy-[1,2,4]triazolo[1,5-a]pyridin-6-yl)-1,3-dihydro-2H-benzo[d]imidazol-2-one], inhibition was half-maximal at 6.53 µM (IC50).

Molecule `CCC(CC)CN[C@H]1CC[C@@H](n2c(=O)[nH]c3cc(-c4cn5ncnc5c(C)c4C)c(C(C)C)cc32)CC1` [Example 198] had an IC50 of 2.13 µM.

`COc1cc(-c2cc3[nH]c(=O)n(C4CCC(N5CC(OC)C5)CC4)c3cc2C(C)C)cn2ncnc12` (centres unmarked) [Example 237, 6-isopropyl-5-(8-methoxy-[1,2,4]triazolo[1,5-a]pyridin-6-yl)-1-(4-(3-methoxyazetidin-1-yl)cyclohexyl)-1,3-dihydro-2H-benzo[d]imidazol-2-one] yielded an IC50 of 11.3 µM.

Take `CCCN1CCC[C@@H](n2c(=O)[nH]c3cc(-c4cc(OC)c5ncnn5c4)c(CC)cc32)C1` [Example 179, (R)-6-ethyl-5-(8-methoxy-[1,2,4]triazolo[1,5-a]pyridin-6-yl)-1-(1-propylpiperidin-3-yl)-1,3-dihydro-2H-benzo[d]imidazol-2-one]: the IC50 worked out at 6.86 µM.

The molecule `COc1cc(-c2cc3[nH]c(=O)n([C@H]4CC[C@H](N(C)C)CC4)c3cc2C(C)C)cn2ncnc12` [Example 202, 1-((1r,4r)-4-(dimethylamino)cyclohexyl)-6-isopropyl-5-(8-methoxy-[1,2,4]triazolo[1,5-a]pyridin-6-yl)-1,3-dihydro-2H-benzo[d]imidazol-2-one] yielded an IC50 of 23 µM.

The molecule `CCc1cc2c(cc1-c1cc(OC)c3ncnn3c1)[nH]c(=O)n2[C@@H]1CCCN(CCC(F)(F)F)C1` [Example 183, (R)-6-ethyl-5-(8-methoxy-[1,2,4]triazolo[1,5-a]pyridin-6-yl)-1-(1-(3,3,3-trifluoropropyl)piperidin-3-yl)-1,3-dihydro-2H-benzo[d]imidazol-2-one] displayed an IC50 of 33.5 µM.

`COc1cc(-c2cc3[nH]c(=O)n(C4CCC(N5CCNC(=O)C5)CC4)c3cc2C(C)C)cn2ncnc12` (centres unmarked) [Example 243, 6-isopropyl-5-(8-methoxy-[1,2,4]triazolo[1,5-a]pyridin-6-yl)-1-(4-(3-oxopiperazin-1-yl)cyclohexyl)-1,3-dihydro-2H-benzo[d]imidazol-2-one] displayed an IC50 greater than 50 µM.

`COc1cc(-c2cc3[nH]c(=O)n([C@H]4CC[C@H](NCC(C)C)CC4)c3cc2C(C)C)cn2ncnc12` [Example 204, 1-((1r,4s)-4-(isobutylamino)cyclohexyl)-6-isopropyl-5-(8-methoxy-[1,2,4]triazolo[1,5-a]pyridin-6-yl)-1,3-dihydro-2H-benzo[d]imidazol-2-one] returned an IC50 of 11.7 µM.

Molecule `COc1cc(-c2cc3[nH]c(=O)n([C@H]4CC[C@H](NC(C)C)CC4)c3cc2C(C)C)cn2ncnc12` [Example 203, 6-isopropyl-1-((1r,4s)-4-(isopropylamino)cyclohexyl)-5-(8-methoxy-[1,2,4]triazolo[1,5-a]pyridin-6-yl)-1,3-dihydro-2H-benzo[d]imidazol-2-one] returned an IC50 of 30.9 µM.

Take `Cc1cc2c(cc1-c1cc(C)c3ncnn3c1)[nH]c(=O)n2[C@H]1CCCN(C2COC2)C1` [Example 14, (S)-6-methyl-5-(8-methyl-[1,2,4]triazolo[1,5-a]pyridin-6-yl)-1-(1-(oxetan-3-yl)piperidin-3-yl)-1,3-dihydro-2H-benzo[d]imidazol-2-one]: the IC50 is greater than 50 µM.

In the case of `COc1cc(-c2cc3[nH]c(=O)n(C4CCC(N5CCCC5)CC4)c3cc2C(C)C)cn2ncnc12` (centres unmarked) [Example 232, 6-isopropyl-5-(8-methoxy-[1,2,4]triazolo[1,5-a]pyridin-6-yl)-1-(4-(pyrrolidin-1-yl)cyclohexyl)-1,3-dihydro-2H-benzo[d]imidazol-2-one], half-maximal inhibition (IC50) was put at 7.78 µM.

Take `COc1c(C)c(-c2cc3[nH]c(=O)n(C4CCC(N5CCC(F)(F)CC5)CC4)c3cc2C(C)C)cn2ncnc12` (single isomer, unassigned) [Example 230, 1-(4-(4,4-difluoropiperidin-1-yl)cyclohexyl)-6-isopropyl-5-(8-methoxy-7-methyl-[1,2,4]triazolo[1,5-a]pyridin-6-yl)-1,3-dihydro-2H-benzo[d]imidazol-2-one]: the IC50 was greater than 50 µM.

On to `COCCN1CCC[C@H](n2c(=O)[nH]c3cc(-c4cc(OC)c5ncnn5c4)c(C(C)C)cc32)C1` [Example 221, (S)-6-isopropyl-5-(8-methoxy-[1,2,4]triazolo[1,5-a]pyridin-6-yl)-1-(1-(2-methoxyethyl)piperidin-3-yl)-1,3-dihydro-2H-benzo[d]imidazol-2-one], for which 20.6 µM corresponded to half-maximal inhibition (IC50).

For the molecule `COc1cc(-c2cc3[nH]c(=O)n([C@H]4CC[C@@H](NC5CCOCC5)CC4)c3cc2C(C)C)cn2ncnc12` [Example 193, 6-isopropyl-5-(8-methoxy-[1,2,4]triazolo[1,5-a]pyridin-6-yl)-1-((1s,4s)-4-((tetrahydro-2H-pyran-4-yl)amino)cyclohexyl)-1,3-dihydro-2H-benzo[d]imidazol-2-one], the IC50 is 21.4 µM.

`Cc1c(-c2cc3[nH]c(=O)n([C@H]4CC[C@@H](NCC(C)(C)C)CC4)c3cc2C(C)C)cn2ncnc2c1C` [Example 190, 5-(7,8-dimethyl-[1,2,4]triazolo[1,5-a]pyridin-6-yl)-6-isopropyl-1-((1s,4s)-4-(neopentylamino)cyclohexyl)-1,3-dihydro-2H-benzo[d]imidazol-2-one]: the IC50 was 5.05 µM.

Consider `CCc1cc2c(cc1-c1cc(OC)c3ncnn3c1)[nH]c(=O)n2[C@@H]1CCCN(CCC(C)(C)C)C1` [Example 208, (R)-1-(1-(3,3-dimethylbutyl)piperidin-3-yl)-6-ethyl-5-(8-methoxy-[1,2,4]triazolo[1,5-a]pyridin-6-yl)-1,3-dihydro-2H-benzo[d]imidazol-2-one], for which the IC50 is 3.32 µM.
